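Method: 48-hour compound exposure of cells in 96-well plates, five concentrations, linear interpolation of endpoints. Abbreviation: GI50, concentration required for 50% inhibition of growth. TGI marks complete inhibition of growth.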
Key:
Assay in all cases: inhibition of tumour cell growth, NCI panel, 48 h
786-0 renal = tested on: 786-0 renal
A498 renal = tested on: A498 renal
A549 NSCLC = tested on: A549 NSCLC
ACHN renal = tested on: ACHN renal
BT-549 breast = tested on: BT-549 breast
CAKI-1 renal = tested on: CAKI-1 renal
CCRF-CEM leukemia = tested on: CCRF-CEM leukemia
COLO 205 colon = tested on: COLO 205 colon
DU-145 prostate = tested on: DU-145 prostate
EKVX NSCLC = tested on: EKVX NSCLC
HCC-2998 colon = tested on: HCC-2998 colon
HCT-116 colon = tested on: HCT-116 colon
HCT-15 colon = tested on: HCT-15 colon
HL-60(TB) leukemia = tested on: HL-60(TB) leukemia
HOP-62 NSCLC = tested on: HOP-62 NSCLC
HOP-92 NSCLC = tested on: HOP-92 NSCLC
HS 578T breast = tested on: HS 578T breast
HT29 colon = tested on: HT29 colon
IGROV1 ovarian = tested on: IGROV1 ovarian
K-562 leukemia = tested on: K-562 leukemia
KM12 colon = tested on: KM12 colon
LOX IMVI melanoma = tested on: LOX IMVI melanoma
M14 melanoma = tested on: M14 melanoma
MALME-3M melanoma = tested on: MALME-3M melanoma
MCF7 breast = tested on: MCF7 breast
MDA-MB-231 breast = tested on: MDA-MB-231 breast
MDA-MB-435 = tested on: MDA-MB-435
MOLT-4 leukemia = tested on: MOLT-4 leukemia
NCI-H226 lung = tested on: NCI-H226 lung
NCI-H23 lung = tested on: NCI-H23 lung
NCI-H460 lung = tested on: NCI-H460 lung
NCI-H522 lung = tested on: NCI-H522 lung
NCI/ADR-RES ovarian = tested on: NCI/ADR-RES ovarian
OVCAR-3 ovarian = tested on: OVCAR-3 ovarian
OVCAR-4 ovarian = tested on: OVCAR-4 ovarian
OVCAR-8 ovarian = tested on: OVCAR-8 ovarian
PC-3 prostate = tested on: PC-3 prostate
RPMI-8226 leukemia = tested on: RPMI-8226 leukemia
RXF 393 renal = tested on: RXF 393 renal
SF-268 CNS = tested on: SF-268 CNS
SF-295 CNS = tested on: SF-295 CNS
SF-539 CNS = tested on: SF-539 CNS
SK-MEL-2 melanoma = tested on: SK-MEL-2 melanoma
SK-MEL-28 melanoma = tested on: SK-MEL-28 melanoma
SK-OV-3 ovarian = tested on: SK-OV-3 ovarian
SN12C renal = tested on: SN12C renal
SNB-19 CNS = tested on: SNB-19 CNS
SNB-75 CNS = tested on: SNB-75 CNS
SR leukemia = tested on: SR leukemia
SW-620 colon = tested on: SW-620 colon
T-47D breast = tested on: T-47D breast
TK-10 renal = tested on: TK-10 renal
U251 CNS = tested on: U251 CNS
UACC-257 melanoma = tested on: UACC-257 melanoma
UACC-62 melanoma = tested on: UACC-62 melanoma
UO-31 renal = tested on: UO-31 renal

Q: Which results are given for `CCc1cccc2c3c(sc12)C(c1ccc(Cl)cc1)C(C#N)=C(/N=C/c1ccc(Cl)cc1)O3` (configuration not stated)?
A: GI50 (786-0 renal): 1630 nM; TGI (786-0 renal): > 50000 nM; GI50 (A498 renal): 280 nM; TGI (A498 renal): 4920 nM; GI50 (A549 NSCLC): 670 nM; TGI (A549 NSCLC): > 50000 nM; GI50 (ACHN renal): 779 nM; TGI (ACHN renal): > 50000 nM; GI50 (BT-549 breast): 2360 nM; TGI (BT-549 breast): > 50000 nM; GI50 (CAKI-1 renal): 1290 nM; TGI (CAKI-1 renal): > 50000 nM; GI50 (CCRF-CEM leukemia): 892 nM; TGI (CCRF-CEM leukemia): > 50000 nM; GI50 (COLO 205 colon): 1590 nM; TGI (COLO 205 colon): > 50000 nM; GI50 (DU-145 prostate): 1270 nM; TGI (DU-145 prostate): > 50000 nM; GI50 (EKVX NSCLC): 1340 nM; TGI (EKVX NSCLC): > 50000 nM; GI50 (HCC-2998 colon): 1080 nM; TGI (HCC-2998 colon): > 50000 nM; GI50 (HCT-116 colon): 347 nM; TGI (HCT-116 colon): > 50000 nM; GI50 (HCT-15 colon): 317 nM; TGI (HCT-15 colon): > 50000 nM; GI50 (HL-60(TB) leukemia): 577 nM; TGI (HL-60(TB) leukemia): > 50000 nM; GI50 (HOP-62 NSCLC): 2080 nM; TGI (HOP-62 NSCLC): 22300 nM; GI50 (HOP-92 NSCLC): 7660 nM; TGI (HOP-92 NSCLC): 45500 nM; GI50 (HS 578T breast): 1180 nM; TGI (HS 578T breast): 35100 nM; GI50 (HT29 colon): 1200 nM; TGI (HT29 colon): > 50000 nM; GI50 (IGROV1 ovarian): 377 nM; TGI (IGROV1 ovarian): > 50000 nM; GI50 (K-562 leukemia): 234 nM; TGI (K-562 leukemia): > 50000 nM; GI50 (KM12 colon): 417 nM; TGI (KM12 colon): > 50000 nM; GI50 (LOX IMVI melanoma): 905 nM; TGI (LOX IMVI melanoma): > 50000 nM; GI50 (M14 melanoma): 582 nM; TGI (M14 melanoma): > 50000 nM; GI50 (MALME-3M melanoma): 4720 nM; TGI (MALME-3M melanoma): > 50000 nM; GI50 (MCF7 breast): 248 nM; TGI (MCF7 breast): > 50000 nM; GI50 (MDA-MB-231 breast): 2400 nM; TGI (MDA-MB-231 breast): > 50000 nM; GI50 (MDA-MB-435): 162 nM; TGI (MDA-MB-435): 788 nM; GI50 (MOLT-4 leukemia): 1650 nM; TGI (MOLT-4 leukemia): > 50000 nM; GI50 (NCI-H226 lung): 6310 nM; TGI (NCI-H226 lung): > 50000 nM; GI50 (NCI-H23 lung): 2510 nM; TGI (NCI-H23 lung): > 50000 nM; GI50 (NCI-H460 lung): 1020 nM; TGI (NCI-H460 lung): > 50000 nM; GI50 (NCI-H522 lung): 206 nM; TGI (NCI-H522 lung): 2960 nM; GI50 (NCI/ADR-RES ovarian): 214 nM; TGI (NCI/ADR-RES ovarian): 8380 nM; GI50 (OVCAR-3 ovarian): 433 nM; TGI (OVCAR-3 ovarian): 25200 nM; GI50 (OVCAR-4 ovarian): > 50000 nM; TGI (OVCAR-4 ovarian): > 50000 nM; GI50 (OVCAR-8 ovarian): 1600 nM; TGI (OVCAR-8 ovarian): > 50000 nM; GI50 (PC-3 prostate): 556 nM; TGI (PC-3 prostate): > 50000 nM; GI50 (RPMI-8226 leukemia): 1060 nM; TGI (RPMI-8226 leukemia): > 50000 nM; GI50 (RXF 393 renal): 578 nM; TGI (RXF 393 renal): 2660 nM; GI50 (SF-268 CNS): 10900 nM; TGI (SF-268 CNS): > 50000 nM; GI50 (SF-295 CNS): 177 nM; TGI (SF-295 CNS): 806 nM; GI50 (SF-539 CNS): 755 nM; TGI (SF-539 CNS): 2090 nM; GI50 (SK-MEL-2 melanoma): 797 nM; TGI (SK-MEL-2 melanoma): 23600 nM; GI50 (SK-MEL-28 melanoma): 9500 nM; TGI (SK-MEL-28 melanoma): > 50000 nM; GI50 (SK-OV-3 ovarian): 2790 nM; TGI (SK-OV-3 ovarian): > 50000 nM; GI50 (SN12C renal): 1930 nM; TGI (SN12C renal): > 50000 nM; GI50 (SNB-19 CNS): 1200 nM; TGI (SNB-19 CNS): 15800 nM; GI50 (SNB-75 CNS): 104 nM; TGI (SNB-75 CNS): 1220 nM; GI50 (SR leukemia): 290 nM; TGI (SR leukemia): 36300 nM; GI50 (SW-620 colon): 360 nM; TGI (SW-620 colon): > 50000 nM; GI50 (T-47D breast): 1130 nM; TGI (T-47D breast): > 50000 nM; GI50 (TK-10 renal): 8460 nM; TGI (TK-10 renal): > 50000 nM; GI50 (U251 CNS): 1660 nM; TGI (U251 CNS): 17000 nM; GI50 (UACC-257 melanoma): 21400 nM; TGI (UACC-257 melanoma): > 50000 nM; GI50 (UACC-62 melanoma): 306 nM; TGI (UACC-62 melanoma): 44500 nM; GI50 (UO-31 renal): 1690 nM; TGI (UO-31 renal): > 50000 nM

Reference: PubChem BioAssay (NCI)
